One series in a line: pKa of demiditraz. Format: physicochemical. Conditions: weak base. The procedure:
(§1) […] is also a weak base due to the presence of the imidazole ring. […] An acid modifier (or mixtures thereof) was added to the formulation in a molar equivalent relative to the amount of demiditraz to adjust the pH below 7.5 and reduce or eliminate the nucleophilic reaction between fipronil and demiditraz. The acid modifier includes both weak and strong acids. The weak acids include sugar acids (glyceric, gluconic, ascorbic, tartaric, and the like), carboxylic acid derivatives (mono-, di-, and tri-chloro acetic acid, and mono-, di-, and tri-fluoro acetic acid, benzoic, and the like) and mono-, di-, and tri-carboxylic acids. Non-exclusive examples of monocarboxylic acids include formic, acetic, propionic, butyric, oleic, valeric, caproic, enanthic, caprylic, linoleic, chloroacetic, dichloroacetic, oxalic, benzoic, pelargonic, capric, lauric, myristic, palmitic, stearic, and arachidic acid. Non-exclusive examples of di-carboxylic acids include oxalic, malonic, succinic, fumaric, aldaric, tartaric, glutaric, adipic, maleic, malic, pimelic, suberic, azelaic, sebacic, phthalic, isophtalic, and terephthalic acid. Non-exclusive examples of tri-carboxylic acids include citric, isocitric, aconitic, propane-1,2,3-tricarboxylic, and trimesic acid.

Series [1] is classed as physicochemical. The procedure: as §1
Series [2] is classed as physicochemical. As to the method:
as §1
The addition of the weak acid in the formulation lowered the apparent pH of the formulation to about 6.5 to 7.5, however, fipronil degraded initially by about 5-6% followed by slower degradation to about 10-15% during an accelerated (70°) kinetic study. Strong acids (pka≦2) were added to the formulation to both lower apparent pH to about 2.5 to about 3.5 and to protonate demiditraz to prevent it from potentially acting as a nucleophile against fipronil. Non-exclusive examples of strong acids include inorganic acids (e.g., HCl, HBr, HI, HF, nitric acid, phosphoric acid, boric acid, sulfuric acid, and the like). Other strong acids include sulfonic acid and sulfonic acid derivatives thereof. Non-exclusive examples of sulfonic acid derivatives include methane-, ethane-, p-toluenesulfonic (p-TSA), and dodecylbenzenesulfonic acid. The use of a strong acid, e.g., p-TSA, increased fipronil stability, however, degradation was still about 5% after 12 weeks at 50° C.
The initial instability of fipronil was reduced to about ≦1% during an accelerated (70° C.) 1-week stability study for DPGMME with a strong acid and for NMP with a strong or weak acid.
The source holds these as a separate data set.

Broadly, the pKa is the pH at which an ionisable group is half protonated.

SMILES strings stand for the structures. Where two headings read alike, the source gives them in different places. Where only a bound is given, the exact number is not on record here.

Molecule `Cc1cccc([C@H](C)c2ncc[nH]2)c1C` [Demiditraz, demiditraz] showed a pKa in “pKa of demiditraz” of 7.2.
Take `N#Cc1nn(-c2c(Cl)cc(C(F)(F)F)cc2Cl)c(N)c1[S+]([O-])C(F)(F)F` (centres unmarked) [fipronil]: the “pH levels at which fipronil degrades rapidly” value in series [1] is “above 7.5”. Moreover, in series [2], the Fipronil initial degradation is listed as 5-6%, the “Fipronil slower degradation following the initial one” value is reported as 10-15% and the “Fipronil stability when formulated with demiditraz” value is listed as “unstable”. In addition, in series [2] (1 week), the Fipronil degradation is reported as 3-6% and the “Initial instability of fipronil” value was at most 1%. In addition, the Fipronil degradation result in series [2] (12 weeks) is reported as “about 5%”.
